# Results published in patent US20130045991A1, “NEUROPROTECTIVE MODULATION OF NMDA RECEPTOR SUBTYPE ACTIVITIES” (THE UNIVERSITY OF BRITISH COLUMBIA, priority 2005, published 2013).
# Assays:
# synaptic NMDA receptors = experiment: mEPSC recording, NMDA receptor-mediated component; assay type: cell-based, rat
# [1] = test system: middle cerebral artery occlusion (MCAo); experiment: MCAo focal ischemic stroke model, post-ischemic treatment; assay type: in vivo, rat
# Excerpt: In some clinical settings, it is desirable to implement therapy after the onset of neuronal injury, such as stroke or other ischemic events.
# Transient cerebral focal ischemia was produced by middle cerebral artery occlusion (MCAo) as described (Aarts et al., 2002; Bederson et al., 1986; Longa et al., 1989). Briefly, male Sprague-Dawley rats (Charles River Laboratories) weighing ˜300 g were anesthetized and MCAo was achieved by introducing a 3-0 monofilament suture into the MCA via the internal carotid artery. Body temperature was maintained at 37.0±0.5° C., and blood pressure and blood gases were monitored during the experiments. Animals were sacrificed 24 h following MCAo onset. Cerebral infarction was analyzed using brain sections stained with hematoxylin and eosin (H & E) or 2,3,5-triphenyltetrazolium chloride (TTC). 10 min before the animals were sacrificed, two tests, the postural reflex test to examine upper body posture (Bederson et al., 1986) and the forelimb placing test to examine sensorimotor integration in forelimb placing responses to visual, tactile, and proprioceptive stimuli (De Ryck et al., 1989), were performed to grade neurological function on a scale of 0 to 12 (0=normal, 12=worst). In the pretreatment study, a single bolus of drugs (NR2A-specific antagonist NVP-AAM077 (2.4 mg/kg) or NR2B specific antagonist Ro 25-6981 (6 mg/kg) or vehicle (saline)) was infused intravenously 30 min before a 1-h MCAo. For post-treatment experiments, animals were subjected to a 1.5-h MCAo and drug treatments (glycine, 800 mg/kg; NVP-AAM077 and Ro 25-6981 at the same doses as in the pretreatment study) were then given via intraperitoneal injection (i.p.) 3 h after reperfusion (4.5 h after the onset of MCAo).
# The activating effect on NR2A-containing receptors was mimicked with the application of the NMDA receptor co-agonist glycine in the presence of an […] NR2B antagonist. Glycine by itself potentiates the function of NMDA receptors that are activated by endogenously released glutamate from presynaptic terminals both in vitro and in vivo (Johnson et al., 1987; Lu et al., 2001; De et al., 2000).
# [2] = test system: AMPA subtype glutamate receptor; experiment: mEPSC recording, fast AMPA receptor-mediated component; assay type: cell-based, rat; conditions: -60 mV, zero added Mg2+
# cortical neurons [3] = experiment: Glycine pretreatment before NMDA-induced neuronal apoptosis; assay type: cell-based, rat
# Protocol: (§1) Mature neurons (11-14 DIV) were used for experiments.
# (§2) To visualize injured neurons, Hoechst-33342 (10 μg/ml) was added to the culture medium 20 h after treatments and incubated for 45 min at 37 °C. Images were taken with a Leica DMIRE2 fluorescence microscope. Quantitative assessment of neuronal apoptosis was performed 20 h following treatments using a Cell Death Detection […] Kit (Roche Applied Science). Absorbance readings were determined using a spectrophotometric microplate reader. Data analyses were carried out according to the manufacturer's instructions. Data are expressed as the difference in apoptosis relative to control and are expressed as a percentage.
# [4] = test system: acute ischaemic stroke in the carotid artery territory; conditions: sublingual 1.0-2.0 g/day started within 6 h after onset; cited from earlier work
# cortical neurons [5] = experiment: Staurosporine (STS)-induced neuronal apoptosis; assay type: cell-based, rat; conditions: NMDA 200 μM, 5 min, Ro 25-6981 0.5 μM present
# Excerpt: In alternative aspects of the invention, we have achieved specific activation of NR2A-containing receptors using two different strategies. First, we examined the effect of selective activation of extrasynaptic NR2A-containing receptor activation on neuronal appopotosis induced by staurosporine (STS), a potent apoptosis inducer (Budd et al., 2000). […] The NMDA-induced neuronal protection was indeed mediated by NR2A-containing receptors as it was prevented by co-application of NVP-AAM077 (p<0.001 compared with STS alone).
# Dissociated cultures of cortical neurons were prepared from 18-day Sprague-Dawley rat embryos as described previously (Mielke et al., 2005). To obtain mixed cortical cultures enriched with neurons, uridine (10 μM) and 5-Fluor-2′-deoxyuridine (10 μM) were added to the culture medium at 3 DIV and maintained for 48 h, to inhibit non-neuronal cell proliferation, before the cultures were shifted back to the normal culture medium. Mature neurons (11-14 DIV) were used for experiments. To induce neuronal apoptosis, cortical cultures were stimulated with NMDA (50 μM) and glycine (10 μM) for 20 min, or STS (100 nM) for 1 h in Mg2+-free extracellular solution (ECS) containing (mM): 25 HEPES acid, 140 NaCl, 33 glucose, 5.4 KCl and 1.3 CaCl2, with pH 7.35 and osmolarity 320-330 mOsm. […]
# To visualize injured neurons, Hoechst-33342 (10 μg/ml) was added to the culture medium 20 h after treatments and incubated for 45 min at 37 °C. Images were taken with a Leica DMIRE2 fluorescence microscope. Quantitative assessment of neuronal apoptosis was performed 20 h following treatments using a Cell Death Detection ELISAPLUS Kit (Roche Applied Science). Absorbance readings were determined using a spectrophotometric microplate reader. […] Data are expressed as the difference in apoptosis relative to control and are expressed as a percentage.
# [6] = test system: NR1C and NR2B receptors over NR1C+NR2A receptors; conditions: cited from earlier work
# permanent focal ischemia = conditions: in vivo; cited from earlier work
# cortical neurons [7] = experiment: NMDA-mediated excitotoxicity: neuronal apoptosis in cortical cultures; assay type: cell-based, rat; conditions: 50 μM NMDA plus 10 μM glycine 20 min, assayed 20 h after; APV 50 μM, Ro25-6981 0.5 μM, NVP-AAM077 0.4 μM
# Protocol: as §1, §2
compound,measurement,setting,value
C[C@]12N[C@H](Cc3ccccc31)c1ccccc12 [MK-801],blockade of synaptic NMDA receptors (APV-sensitive component of mEPSCs),"synaptic NMDA receptors; MK-801 10 μM co-applied with bicuculline 50 μM, within 10 min",complete blockade
same,effect of co-administration on the glycine effect (infarct volume reduction),[1]; co-administered with glycine 800 mg/kg 4.5 h after stroke onset,virtually completely abolished
same,neuroprotection / total infarct volume compared with MCAo alone,"[1]; given 3 h after 1.5-h MCAo (4.5 h after stroke onset), MK801 1 mg/Kg, glycine 800 mg/Kg, Ro 25-6981 6 mg/Kg",did not provide any noticeable neuroprotection
"O=C1N=c2cc([N+](=O)[O-])c([N+](=O)[O-])cc2=NC1=O [DNQX, 6,7-dinitroquinoxaline-2,3-dione]",effect on fast AMPA receptor-mediated component of mEPSCs,[2],completely blocked
"NCC(=O)O [glycine, Glycine]",effect of pretreatment on NMDA-induced neuronal apoptosis,cortical neurons [3],significantly reduced NMDA-induced neuronal apoptosis
same,neuroprotection / total infarct volume compared with MCAo alone,"[1]; rat, in vivo",remarkable reduction in total infarct volume
same,clinical effects,[4],favourable clinical effects
"CN[C@H](CC(=O)O)C(=O)O [NMDA, N-methyl-D-aspartate]",effect on STS-induced apoptosis,"cortical neurons [5]; STS 100 nM, 1 h",significantly reduced STS-induced apoptosis
same,neuronal apoptosis on its own,cortical neurons [5]; synaptic receptors blocked (MK-801 + bicuculline),did not increase neuronal apoptosis on its own
"Cc1ccc(CC2(O)CCN(CCOc3ccc(O)cc3)CC2)cc1 [Ro 63-1908, 1-[2-(4-hydroxy-phenoxy)-ethyl]-4-(4-methyl-benzyl)-piperidin-4-ol]",selectivity for the NR1C and NR2B receptors over NR1C+NR2A receptors,[6],"20,000 fold"
same,neuroprotective effect against cortical damage,permanent focal ischemia,dose-related neuroprotective effect
N[C@@H](CCCP(=O)(O)O)C(=O)O [APV],effect on NMDA-induced neuronal apoptosis/damage,cortical neurons [7],fully blocked
same,effect on slow NMDA receptor-mediated component of mEPSCs,"synaptic NMDA receptors; -60 mV, zero added Mg2+, APV 50 μM, Ro 25-6981 0.5 μM",fully blocked
